In one assay the test system is Phytophthora infestans. Format: in vivo. On the set-up: scale not given here. The settings on record: Tomato Late Blight, five days.
The subject of another assay is Piricularia oryzae. Format: in vivo. Also on record: scale not given here. The settings on record: Rice Blast, five days.
A further assay relates to Venturia inaequalis. The settings on record: in vivo.
The test system of assay [1] is Stemphylium sarcinaeforme. In words: Agar dilution plate. The settings on record: Ss; 100 ppm, 72 hours at 23° C. The assay is classed as cell-based. The protocol: (§1) Test compounds were incorporated in a Sabouraud's dextrose agar in an amount sufficient to provide the active ingredient in a concentration of about 100 ppm. A twenty-ml. sample of the agar mixture is placed in a petri dish and permitted to solidify. An agar sample is inoculated with the test organism set forth below and then covered and incubated for a period of about 72 hours at 23° C. After incubation, growth observations are made. The test results are recorded and the test is repeated twice for the purpose of comparison.
(§2) The data obtained with a variety of test organisms is shown in the table below, and ratings are shown as 0 or 5. O indicates no control, 5 indicates 100% effectiveness of the test compound against the specified organism.
Ss= Stemphylium sarcinaeforme
For orientation: In agar dilution the substance is mixed into plates at graded concentrations.

Assay [2] concerns Collectotrichum lagenarium. In words: Agar dilution plate. Format: cell-based. The settings on record: Cl; 100 ppm, 72 hours at 23° C. The protocol: as §1, §2
Cl= Collectotrichum lagenarium

The next assay has as its system Rhizoctonia solani. In words: Agar dilution plate. The assay is classed as cell-based. The settings on record: Rs; 100 ppm, 72 hours at 23° C. The protocol: as §1, §2
Assay [3] relates to Aspergillus niger. In words: Agar dilution plate. The assay is classed as cell-based. The settings on record: An; 100 ppm, 72 hours at 23° C. The protocol:
as §1, §2

For another assay, the system named is Fusarium lycopersici. Put plainly: Agar dilution plate. The assay is classed as cell-based. The settings on record: Fl; 100 ppm, 72 hours at 23° C. How it is done:
as §1, §2

The next assay deals with Pythium de Baryanum. In words: Agar dilution plate. Format: cell-based. The settings on record: Pd; 100 ppm, 72 hours at 23° C. How it is done: as §1, §2
Assay [4] relates to Monilinia fructicola. Put plainly: Agar dilution plate. Format: cell-based. The settings on record: Mf; 100 ppm, 72 hours at 23° C. The protocol: as §1, §2
Another assay relates to Pseudomonas solaracaerum. Format: cell-based. The settings on record: 100 ppm, 72 hours at 23° C.
In the next assay the test system is Verticillium albo-atrum. In words: Agar dilution plate. Format: cell-based. The settings on record: Va; 100 ppm, 72 hours at 23° C. How it is done: as §1, §2
Va= Verticillium albo-atrum

Assay [5] deals with Aspergillus niger. In words: Spore germination inhibition. The settings on record: 24 hours. The assay is classed as cell-based. The text has this: (§3) The test procedure involves the preparation of a 100, 10 or 1 ppm. suspension of test compound in water. The solutions are placed in one dram "opticlear" vials and separately inoculated with one drop of a spore suspension prepared from seven-day cultures of Aspergillus niger and 14-day old cultures of Monilinia fructicola and Stemphylium sarcinaeforme,all grown on potato-dextrose agar. The vials containing the separately inoculated solutions of test compounds are then capped and placed on a rotating tumbler for 24 hours to assure contact of the organism with the test compound. After 24 hours, the vials are removed and examined for inhibition of […].

The test system of assay [6] is Stemphylium sarcinaeforme. In words: Spore germination inhibition. The settings on record: Stemphylium sarciniforme; for inhibition at 100 ppm: 24 h, read-out: % Inhibition of Spore Germination; for inhibition at 1 ppm / inhibition at 10 ppm: 24 hours. Format: cell-based.
Description: as §3

For assay [7], the system named is Monilinia fructicola. Put plainly: Spore germination inhibition. The settings on record: for inhibition at 1 ppm / inhibition at 10 ppm: 24 hours; for inhibition at 100 ppm: 24 h, read-out: % Inhibition of Spore Germination. The assay is classed as cell-based.
Description: as §3

Each structure is given as a SMILES string. “And” between values parts separate entries of the source, which are not always exact repeats. Equal entries are not always repeated. Where two headings read alike, the source gives them in different places.

In the case of `CCN(CC)C(=S)SCC(CSC(=S)N(CC)CC)[N+](=O)[O-]` [Example 2, 2-Nitrotrimethylene Diethyldithiocarbamate], the disease control index in the assay with Phytophthora infestans (150 ppm) was 4; in the assay with Phytophthora infestans (300 ppm) it was 4; in the assay with Phytophthora infestans (600 ppm), 5; in the assay with Phytophthora infestans (1200 ppm), 5; in the assay with Piricularia oryzae (150 ppm) it was 4; with Piricularia oryzae (300 ppm), 4. Besides, the disease control index in the assay on Piricularia oryzae (600 ppm), in the assay on Piricularia oryzae (1200 ppm) and in the assay with Venturia inaequalis was 5 in each case. Also, the “Agar Dilution Plate rating” value in assay [1] is on record as 0; in [2] it was 5 (100% effectiveness of the test compound against the specified organism); with Rhizoctonia solani it was 0; in the assay on Aspergillus niger [3], 0; in the assay on Fusarium lycopersici, 0; in the assay with Pythium de Baryanum, 0. Further, the “Agar Dilution Plate rating” value with Monilinia fructicola [4], in the assay on Pseudomonas solaracaerum and in the assay with Verticillium albo-atrum was 0 each time.

Take `CN(C)CC1(CSC(=S)N(C)C)SC(=S)NC1=O` (centres unmarked) [Example 12, Dimethyldithiocarbamic Acid S-Ester with 5-(Dimethylaminomethy)-5-(mercaptomethyl)rhodanine]: the disease control index in the assay on Phytophthora infestans (150 ppm), in the assay with Phytophthora infestans (300 ppm), in the assay on Piricularia oryzae (300 ppm) and in the assay with Venturia inaequalis was 5 in each case.

For `CCN(CC)C(=S)SC(C[N+](=O)[O-])c1ccccc1` (stereo not drawn) [Example 19, α-(Nitromethyl)benzyl Diethyldithiocarbamate], the disease control index with Phytophthora infestans (150 ppm), in the assay with Phytophthora infestans (300 ppm), with Phytophthora infestans (600 ppm), in the assay with Phytophthora infestans (1200 ppm), in the assay with Piricularia oryzae (150 ppm) and with Piricularia oryzae (300 ppm) was 3 throughout. The disease control index is 5 with Piricularia oryzae (600 ppm); 5 with Piricularia oryzae (1200 ppm); 5 and 0 with Venturia inaequalis. In addition, the “Agar Dilution Plate rating” value (in [1]; in assay [2]; in the assay on Rhizoctonia solani; with Aspergillus niger [3]; in the assay with Fusarium lycopersici; in the assay with Pythium de Baryanum) was 0 each time. Further, the figures for the “Agar Dilution Plate rating” value in the assay on Monilinia fructicola [4], in the assay on Pseudomonas solaracaerum and in the assay with Verticillium albo-atrum were 5 (100% effectiveness of the test compound against the specified organism), 0 and 0, respectively.

Regarding `CN(C)C(=S)SC(C[N+](=O)[O-])c1ccc(C(C[N+](=O)[O-])SC(=S)N(C)C)cc1` (stereo not drawn) [Example 20, α,α'-Bis(nitromethyl)-p-phenylenedimethylene Dimethyldithiocarbamate], the disease control index worked out at 3 in the assay with Phytophthora infestans (150 ppm), 3 in the assay on Phytophthora infestans (300 ppm), 4 in the assay with Phytophthora infestans (600 ppm) and 5 with Phytophthora infestans (1200 ppm).

For the molecule `COc1cccc(C(C[N+](=O)[O-])SC(=S)N(C)C)c1OC(C)=O` (stereo not drawn) [Example 21, 2-Acetoxy-3-methoxy-α-(nitromethyl)benzyl Dimethyldithiocarbamate], the disease control index in the assay on Phytophthora infestans (at 500 ppm) turned out to be 5; in the assay on Piricularia oryzae (at 75 ppm), 3; in the assay on Piricularia oryzae (at 500 ppm), 4; with Venturia inaequalis it was 4.

On to `CN(C)C(=S)SC(C[N+](=O)[O-])c1cc([N+](=O)[O-])ccc1Cl` (stereo not drawn) [Example 23, 2-Chloro-5-nitro-α-(nitromethyl)benzyl Dimethyldithiocarbamate], for which the disease control index in the assay with Phytophthora infestans (at 100 ppm) came to 5; with Phytophthora infestans (at 500 ppm), 5; in the assay with Piricularia oryzae (at 75 ppm), 3; with Piricularia oryzae (at 500 ppm), 4; with Venturia inaequalis, 4.

As a reminder, the inhibition is the drop in the measured response relative to a control, in per cent. Consider `COc1ccc(C(C[N+](=O)[O-])SC(=S)N(C)C)cc1` (stereo not drawn) [Example 29, p-Methoxy-α-(nitromethyl)benzyl Dimethyldithiocarbamate], for which the disease control index in the assay on Phytophthora infestans (150 ppm) was found to be 5; in the assay on Phytophthora infestans (300 ppm), 5; with Phytophthora infestans (600 ppm), 5; with Phytophthora infestans (1200 ppm), 5; in the assay with Piricularia oryzae (150 ppm), 4; with Piricularia oryzae (300 ppm), 5. Further, the disease control index in the assay on Piricularia oryzae (600 ppm), in the assay on Piricularia oryzae (1200 ppm) and in the assay with Venturia inaequalis was 5 throughout. The inhibition at 1 ppm (with Aspergillus niger [5]; in assay [6]; in the assay on Monilinia fructicola [7]) was 0% in each case. In addition, the inhibition at 10 ppm in the assay on Aspergillus niger [5] was found to be 0%; in assay [6] it was 100%; with Monilinia fructicola [7], 100%. The inhibition at 100 ppm (in the assay with Aspergillus niger [5]; in assay [6]; in the assay with Monilinia fructicola [7]) was 100% in each case.

With `CN(C)C(=S)SC(C[N+](=O)[O-])c1ccco1` (stereo not drawn) [Example 32, α-(Nitromethyl)furfuryl Dimethyldithiocarbamate], the disease control index in the assay with Phytophthora infestans (150 ppm) turned out to be 4; in the assay on Phytophthora infestans (300 ppm), 4; in the assay on Phytophthora infestans (600 ppm), 5; in the assay with Phytophthora infestans (1200 ppm), 5; in the assay on Piricularia oryzae (150 ppm), 0; in the assay on Piricularia oryzae (300 ppm), 0. Also, the disease control index with Piricularia oryzae (600 ppm) is 5; with Piricularia oryzae (1200 ppm), 5; with Venturia inaequalis it was 5 and 0.

Take `CN(C)C(=S)SC(C[N+](=O)[O-])c1ccc(Cl)s1` (stereo not drawn) [Example 34, 5-Chloro-α-(nitromethyl)-2-thenyl Dimethyldithiocarbamate]: the disease control index in the assay with Phytophthora infestans (at 500 ppm) is listed as 3; in the assay with Piricularia oryzae (at 75 ppm) it was 1; in the assay on Piricularia oryzae (at 500 ppm) it was 3. Further, the inhibition at 1 ppm (in the assay on Aspergillus niger [5]; in [6]; with Monilinia fructicola [7]) was 0% each time. Further, the inhibition at 10 ppm (in the assay with Aspergillus niger [5]; in [6]; in the assay with Monilinia fructicola [7]) was 100% each time. Moreover, the inhibition at 100 ppm (with Aspergillus niger [5]; in assay [6]; in the assay with Monilinia fructicola [7]) was 100% throughout. For the same molecule, the “Agar Dilution Plate rating” value is 0 in assay [1]; 5 (100% effectiveness of the test compound against the specified organism) in assay [2]; 5 (100% effectiveness of the test compound against the specified organism) with Rhizoctonia solani; 0 in the assay with Aspergillus niger [3]; 0 in the assay with Fusarium lycopersici; 0 with Pythium de Baryanum. The “Agar Dilution Plate rating” value in the assay on Monilinia fructicola [4], in the assay on Pseudomonas solaracaerum and in the assay on Verticillium albo-atrum was 0 in each case.

For the origin of these results see patent US4148795A, “Dithiocarbamate ester bactericides and fungicides” (American Cyanamid Company, priority 1976, dated 1979).
